In article PMC7730513, “A Topical Formulation of Melatoninergic Compounds Exerts Strong Hypotensive and Neuroprotective Effects in a Rat Model of Hypertensive Glaucoma” (International Journal of Molecular Sciences, 2020):
Several values for one entry are separate records, joined by “and”; a condition that tells them apart may be missing. Equal entries are not always repeated. Entries after “also recorded” stand apart in the source; their conditions may differ. Where two headings read alike, the source gives them in different places.

What was measured:
[1] = tested on: MCE rat model of hypertensive glaucoma; experiment: IOP measurement by tonometry in the MCE model; format: in vivo; conditions: after two weeks of eye drops twice a day; in respect to the respective vehicle (vehicle 1 saline for timolol, brimonidine; vehicle 2 nanomicellar for melatonin/agomelatine)
Protocol: (§1) The model was originally developed in rabbits and then applied to rodents. It is based on the injection of 2% MCE in sterile saline in the anterior chamber of the eye. The MCE used in the present study (M0512; Sigma Aldrich, St. Louis, MO, USA) is pure and has a molecular weight of about 88,000 and, when dissolved in aqueous solution at 2% gives a solution with a viscosity ranging from 3500 to 5600 cps. Rats, anesthetized with an intraperitoneal injection of pentobarbital (30 mg/kg), were injected into the anterior chamber with 15 µL of MCE in both eyes using a 18G needle in agreement with published protocols. […] The eyes of each rat were evaluated for unintended adverse effects of intraocular injection -e.g., cataract, corneal opacity or edema that could impact electrophysiological parameters and/or tonometer accuracy.
(§2) Eye drops (10 µL) were administered to both eyes two times a day over two weeks after MCE injection. Eye drops were instilled at 10 a.m. and at 6 p.m.

[2] = tested on: MCE rat model of hypertensive glaucoma; experiment: Photopic full-field ERG, photopic negative response (PhNR); format: in vivo; conditions: two weeks after MCE; versus respective vehicle
Protocol: as §1, §2

[3] = tested on: MCE rat model of hypertensive glaucoma; experiment: Pattern ERG (PERG); format: in vivo; conditions: two weeks after MCE
Protocol: as §1, §2
PERG responses, mainly generated by RGC activity, can be useful for assessing RGC function in conditions such as glaucoma and ischemic optic neuropathy. PERG responses were evoked using an alternating pattern of black and white horizontal bars delivered on a stimulus display unit from a commercially available PERG system (SB700 Advanced, Nikon-Europe, Amsterdam, The Netherlands). Stimuli consisted in 0.05 cycles/deg black and white bars reversing at 1 Hz presented at 98% contrast. The pattern stimuli were administered through a light emitting diode display with a mean luminance of 50 cd/m^2 aligned at about 20 cm from the corneal surface. A total of 200 signals were averaged. Each animal was placed at the same fixed position in front of the monitor to prevent recording variability due to animal placement. PERG recordings were sequentially conducted in both eyes. The PERG response was evaluated by measuring the amplitude of the N35-P50 wave (from the trough of the negative peak N35, a small deflection near 35 ms after the stimulus, to the peak of the positive peak P50, a deflection near 50 ms after the stimulus) and the P50-N95 wave (from the peak of the positive peak P50 to the trough of the negative peak N95, a deflection near 95 ms after the stimulus). The implicit time was determined by measuring the time from the onset of the stimulus to the P50 and N95 peaks.

[4] = tested on: Iba1; experiment: Western blot of retinal homogenates, Iba1; format: in vivo, rat; conditions: retina, MCE model, versus respective vehicle
Protocol: as §1, with “accuracy. […]” for “accuracy.”
(§3) After animal euthanization with an overdose of pentobarbital, retinas were isolated and stored at −80 °C. […] Protein concentration was measured using the Micro BCA Protein Assay (Thermo Fisher Scientific, Waltham, MA, USA). […] Blots were blocked for 1 h with 5% skim milk and incubated overnight at 4 °C with the primary antibodies listed in Supplementary Table S1 that are routinely used to detect the inflammatory and the apoptotic markers as determined in the present study. β-actin was used as loading control. […]

[5] = tested on: GFAP; experiment: Western blot of retinal homogenates, GFAP; format: in vivo, rat; conditions: retina, MCE model, versus respective vehicle
Protocol: as §1, with “accuracy. […]” for “accuracy.”
as §3

[6] = tested on: TNF-α; experiment: Western blot of retinal homogenates, TNF-α; format: in vivo, rat; conditions: retina, MCE model, versus respective vehicle
Protocol: as §1, with “accuracy. […]” for “accuracy.”
as §3

[7] = tested on: IL-1β; experiment: Western blot of retinal homogenates, IL-1β; format: in vivo, rat; conditions: retina, MCE model, versus respective vehicle
Protocol: as §1, with “accuracy. […]” for “accuracy.”
as §3

[8] = tested on: IL-6; experiment: Western blot of retinal homogenates, IL-6; format: in vivo, rat; conditions: retina, MCE model, versus respective vehicle
Protocol: as §1, with “accuracy. […]” for “accuracy.”
as §3

[9] = tested on: IL-4; experiment: Western blot of retinal homogenates, IL-4; format: in vivo, rat; conditions: retina, MCE model, versus respective vehicle
Protocol: as §1, with “accuracy. […]” for “accuracy.”
as §3

[10] = tested on: IL-10; experiment: Western blot of retinal homogenates, IL-10; format: in vivo, rat; conditions: retina, MCE model, versus respective vehicle
Protocol: as §1, with “accuracy. […]” for “accuracy.”
as §3

[11] = tested on: Bax/Bcl-2; experiment: Western blot of retinal homogenates, Bax/Bcl-2 ratio; format: in vivo, rat; conditions: retina, MCE model, versus respective vehicle
Protocol: as §1, with “accuracy. […]” for “accuracy.”
as §3

[12] = tested on: active caspase 3; experiment: Western blot of retinal homogenates, active caspase 3; format: in vivo, rat; conditions: retina, MCE model, versus respective vehicle
Protocol: as §1, with “accuracy. […]” for “accuracy.”
as §3

[13] = tested on: Brn3a-positive RGCs; experiment: RGC density by Brn3a immunohistochemistry in retinal flat mounts; format: in vivo, rat; conditions: for RGC loss spared: MCE reduced RGC density by about 29%; for RGC density (% of control), Central: central retina; for RGC density (% of control), Central / RGC density (% of control), Middle / RGC density (% of control), Peripheral: MCE + treatment, mean ± SEM, n = 6; for RGC density (% of control), Middle: middle retina; for RGC density (% of control), Peripheral: peripheral retina
Protocol: as §1, §2
After animal euthanization with an overdose of pentobarbital, six retinas from independent rats for each experimental group were explanted. Retinas were then fixed for 90 min at 4 °C in 4% paraformaldehyde in 0.1 M phosphate buffer (PB) and stored at 4 °C in 25% sucrose in 0.1 M PB. Retinal ganglion cells were labeled incubating the retinas for 24 h at 4 °C with a mouse monoclonal antibody against Brn3a (1:100 in PB containing 5% BSA and 2% TritonX-100; sc-8429; Santa Cruz Biotechnology, Santa Cruz, CA, USA). Retina whole mounts were then washed with PB and incubated overnight at 4 °C in an AlexaFluor555-conjugated secondary antibody (1:100; A-32727; Molecular Probes, Eugene, OR, USA). Finally, retinas were washed with PB, mounted on glass slides with the photoreceptor side facing down and viewed with a fluorescence microscope (Ni-E; Nikon-Europe, Amsterdam, The Netherlands). Images of the entire retina were acquired by a DS-Fi1c camera (Nikon-Europe) and Brn3a-positive cells were counted using the NIS-Elements software (Nikon-Europe). […] In total, 12 images were taken from each retina. The density of Brn3a-positive cells (number of cells per mm^2) was compared between the different experimental groups. Quantification was performed in a masked manner.

[14] = after administration of 0.1% eye drops; cited from earlier work
[15] = brimonidine eye drops in monkeys; cited from earlier work
[16] = Sprague-Dawley, rat, in vivo, 2 h
Protocol: (§4) Two hours after the last treatment, animals were euthanized with an overdose of pentobarbital and the eye globes removed. One eye of each rat was taken whole, while the fellow eyes were dissected, and retinas and vitreous humors were separately taken. Whole eyes were cut in small pieces and separately homogenized with an Ultra-turrax homogenizer for 3 min on ice at 4 °C in 0.25 mL of methanol, then subjected to 1 min of ultrasonication in a cold-water bath. The five retinas were pooled together and extracted as before in 0.1 mL of methanol. Each vitreous body was diluted with 0.05 mL of methanol and sonicated. All samples were finally centrifuged 10 min at 10,000× g rpm and the supernatants were saved frozen for further analysis. […] The operational MS parameters of the instrument were: gas temperature, 350 °C; gas flow, 5 L/min; nebulizer, 20 psi; capillary, 3500 V; collision energy, 15 V; dwell-time, 200 msec; fragmentor, 135 V.

[17] = biological target: MT2 melatonin receptor; conditions: read-out: Affinity of MT2 melatonin receptor; cited from earlier work
[18] = in vivo; conditions: rat
Protocol: as §4

[19] = biological target: MT1 melatonin receptor; conditions: read-out: Affinity of MT1 melatonin receptor; cited from earlier work
[20] = Pharmacokinetics study: eye tissue distribution of melatonin/agomelatine eye drops by HPLC/MS/MS in healthy rats; conditions: for concentration at 2 h: rat, topical, 40 µg
Protocol: as §4

[21] = of 120 µg given in 3 administrations of 40 µg

SMILES | PhNR amplitude [2] | Amplitude of the N35-P50 and P50-N95 waves, effect versus vehicle [3] | MCE-induced increase in the implicit time of the P50 and N95 components [3] | Reduction of Iba1 levels [4] | Reduction of GFAP levels [5] | Reduction of TNF-α levels [6] | Reduction of IL-1β levels [7] | Reduction of IL-6 levels [8] | Increase of IL-4 levels [9] | Increase of IL-10 levels [10] | Reduction of the Bax/Bcl-2 ratio [11] | Decrease of the levels of the active form of caspase 3 [12] | RGC loss spared [13] | RGC density (% of control), Central [13] | RGC density (% of control), Middle [13] | RGC density (% of control), Peripheral [13] | Ki [17] [nM] | other results
CC(C)(C)NC[C@H](O)COc1nsnc1N1CCOCC1 [timolol] | did not differ | did not differ | did not affect | did not affect | did not affect | did not affect | did not affect | did not affect | did not affect | did not affect | about 1.6 fold | about 1.3 fold | about 11% | 78 ± 4 *^,§ % of control | 83 ± 3 *^,§ % of control | 81 ± 4 *^,§ % of control |  | Reduction of the MCE-induced increase in IOP [1]: about 32%
Brc1c(NC2=NCCN2)ccc2nccnc12 [brimonidine] | almost restoring the PhNR amplitude to control levels | partly prevented the reduction | prevented | not affecting | about 1.6 fold | did not affect | did not affect | did not affect | did not affect | did not affect | ~9.7 fold | ~2.2 fold | spared almost completely; also recorded: almost completely prevented | 88 ± 3 % of control | 91 ± 6 % of control | 91 ± 3 % of control |  | Amplitude of the P50-N95 wave, lower than in controls ([3]; MCE alone about 55% reduced): ~25%; Amplitude of the N35-P50 wave, lower than in controls ([3]; MCE alone about 60% reduced): about 24%; Vitreous concentration [14]: 2 nM; Concentration values after eye drops [15]: around 80 nM
COc1ccc2[nH]cc(CCNC(C)=O)c2c1 [melatonin] |  |  |  |  |  |  |  |  |  |  |  |  |  |  |  |  | 0.38 | Fraction of the 120 µg given retained in the whole eye [16]: roughly 1%; concentration at 2 h ([18]; Sprague-Dawley, Concentration in the retina (molar)): ~17 nM; concentration at 2 h ([18]; Concentration in the retina (molar)): 17 nM; concentration at 2 h ([18]; Concentration in the vitreous humor (molar)): 43 nM
COc1ccc2cccc(CCNC(C)=O)c2c1 [agomelatine] |  |  |  |  |  |  |  |  |  |  |  |  |  |  |  |  | 0.12 | Ki [19]: 0.01 nM; concentration at 2 h ([20]; Sprague-Dawley, retina, Concentration in the retina (molar), converted from ng/mg): ~378 nM; concentration at 2 h ([20]; Sprague-Dawley, retina, Concentration, pool of retinas, pool of retinas of animals 1 to 5, 3 x 40 µg eye drops, 2 h after last instillation): 96 ng/g; concentration at 2 h ([20]; Sprague-Dawley, vitreous humor, Concentration, vitreous, individual animals 1-5, 3 x 40 µg eye drops, 2 h after last instillation): 71 ng/g; concentration at 2 h ([20]; Sprague-Dawley, vitreous humor, Concentration, vitreous, mean, mean of 5 animals, 3 x 40 µg eye drops, 2 h after last instillation): 80 ng/g; concentration at 2 h ([20]; Sprague-Dawley, whole eye, Concentration, whole eye, individual animals 1-5, 3 x 40 µg as 10 µL eye drops 2 h apart, sampled 2 h after last instillation): 10900 ng/g; concentration at 2 h ([20]; Sprague-Dawley, whole eye, Concentration, whole eye, mean, mean of 5 animals, 3 x 40 µg eye drops, 2 h after last instillation): 9940 ng/g; Content in the whole eye relative to melatonin ([20]; agomelatine 9.94 ng/mg vs melatonin 7.44 ng/mg): 1.33 times; Concentration, whole eye ([20]; individual animals 1-5, 3 x 40 µg as 10 µL eye drops 2 h apart, sampled 2 h after last instillation): 10.64 ng/mg and 11.35 ng/mg and 9.16 ng/mg and 7.67 ng/mg; Concentration, vitreous ([20]; individual animals 1-5, 3 x 40 µg eye drops, 2 h after last instillation): 0.073 ng/mg and 0.099 ng/mg and 0.077 ng/mg and 0.084 ng/mg; Concentration, vitreous, mean ([20]; mean of 5 animals, 3 x 40 µg eye drops, 2 h after last instillation): 0.081 ng/mg; Amount retained in the whole eye [20, 21]: 1.59 µg; Fraction of the 120 µg given retained in the whole eye [20, 21]: ~1.3%; concentration at 2 h ([20]; retina, Concentration in the retina (molar), converted from ng/mg): 378 nM; concentration at 2 h ([20]; vitreous humor, Concentration in the vitreous humor (molar), converted from ng/mg): 332 nM; Retina concentration relative to melatonin ([20]; retina): twenty-two times higher
